Experimental data from patent publication US7009045B2 (priority 2000, dated 2006).

Columns and labels:
Type in all cases: cell-based
[1] = system: Candida famata wild type and regulatory mutants able to overproduce riboflavin on iron-rich medium; experiment: Sensitivity after electroporation to 3CdSO4.8H20, Burkholder medium with 0.3 M sucrose (Table 20); parameters: key: +++: strong growth; ++: weak growth; —: absence of growth
Experimental: (§1) Next, the toxicity of CdSO4 (0–25 μM) to regulatory mutants 2-5 and 4-48 and the C. famata wild strain was studied in the medium with sucrose (Table 20).
(§2) It was shown that all three strains appeared to be very sensitive to Cd^+2 ions without any differences between regulatory mutants and the wild-type strain.

[2] = system: Candida famata wild type and regulatory mutants able to overproduce riboflavin on iron-rich medium; experiment: as above; parameters: key: +++: strong growth; ++: weak growth; +: very weak growth; —: absence of growth
Experimental: as §1, §2

[3] = system: Candida famata regulatory mutants unable to overproduce riboflavin; experiment: Sensitivity to monofluoroacetate, Burkholder medium with 0.5% glycerol (Table 7); details: MFA 0.2–0.4%
Excerpt: (§3) In further experiments, the influence of the aconitase inhibitor, 2-monofluoroacetate (MFA), on the growth of C.famata regulatory mutants unable to overproduce riboflavin was studied in media with glucose (0.5%) or glycerol (0.5%) as the carbon sources.

[4] = system: Candida famata regulatory mutants unable to overproduce riboflavin; experiment: Sensitivity to monofluoroacetate, Burkholder medium with 0.5% glucose (Table 8)
Excerpt: as §3

| SMILES | growth ([1]; #2-5, 5 μM) | growth ([1]; #2-5, 10 μM) | growth ([1]; #2-5, 25 μM) | growth ([1]; #4-48, 5 μM) | growth ([1]; #4-48, 10 μM) | growth ([1]; #4-48, 25 μM) | growth ([1]; VKM Y-9, 5 μM) | growth ([1]; VKM Y-9, 10 μM) | growth ([1]; VKM Y-9, 25 μM) | growth ([2]; #2-5, 15 μM) | growth ([2]; #2-5, 20 μM) | growth ([2]; #4-48, 15 μM) | growth ([2]; #4-48, 20 μM) | growth ([2]; VKM Y-9, 15 μM) | growth ([2]; VKM Y-9, 20 μM) | effect on growth of wild type VKM Y-9 and leu2 auxotroph L20105 [3] | effect on growth of most regulatory mutants [4] |
| --- | --- | --- | --- | --- | --- | --- | --- | --- | --- | --- | --- | --- | --- | --- | --- | --- | --- |
| O.O.O.O.O.O.O.O.O=S(=O)([O-])[O-].O=S(=O)([O-])[O-].O=S(=O)([O-])[O-].[Cd+2].[Cd+2].[Cd+2] [CdSO4×8H2O] | ++ | ++ | — | ++ | ++ | — | +++ | ++ | — | + | + | + | + | + | + |  |  |
| O=C(O)CF [MFA, 2-monofluoroacetate] |  |  |  |  |  |  |  |  |  |  |  |  |  |  |  | not inhibited at all | did not inhibit growth |
